pIC50: −log10 of the molar value. Like-named read-outs stand apart in the source and are kept apart here.
What was measured:
[1] = biological target: Epidermal Growth Factor Receptor (EGFR) (Homo sapiens (Human), UniProt P00533); test: EGFR kinase assay (TR-FRET); format: biochemical; details: read-out: EGFR kinase inhibition IC50; for IC50: values given in μM
Outline: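 Read-out is the 665/620 nm HTRF ratio, from a Tb-cryptate anti-phosphotyrosine antibody and streptavidin-XL665 bound to phosphorylated biotin-peptide substrate. The enzyme, A431-derived EGFR (~3 U/ml), was given 15 min compound pre-binding at 22° C in Hepes pH 7.0 with Mg2+/Mn2+ before reaction.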

[2] = biological target: human SOS1 (nucleotide exchange of K-Ras^G12C) (Homo sapiens, UniProt Q07889); test: Biochemical assay 2: K-Ras^G12C activation assay by hSOS1 at high GTP concentration (HTRF); details: high GTP; read-out: Assay 2 (KRAS-Activation by SOS high GTP) activity expressed as IC50

Chain of Epidermal Growth Factor Receptor (EGFR) (P00533 25-1210): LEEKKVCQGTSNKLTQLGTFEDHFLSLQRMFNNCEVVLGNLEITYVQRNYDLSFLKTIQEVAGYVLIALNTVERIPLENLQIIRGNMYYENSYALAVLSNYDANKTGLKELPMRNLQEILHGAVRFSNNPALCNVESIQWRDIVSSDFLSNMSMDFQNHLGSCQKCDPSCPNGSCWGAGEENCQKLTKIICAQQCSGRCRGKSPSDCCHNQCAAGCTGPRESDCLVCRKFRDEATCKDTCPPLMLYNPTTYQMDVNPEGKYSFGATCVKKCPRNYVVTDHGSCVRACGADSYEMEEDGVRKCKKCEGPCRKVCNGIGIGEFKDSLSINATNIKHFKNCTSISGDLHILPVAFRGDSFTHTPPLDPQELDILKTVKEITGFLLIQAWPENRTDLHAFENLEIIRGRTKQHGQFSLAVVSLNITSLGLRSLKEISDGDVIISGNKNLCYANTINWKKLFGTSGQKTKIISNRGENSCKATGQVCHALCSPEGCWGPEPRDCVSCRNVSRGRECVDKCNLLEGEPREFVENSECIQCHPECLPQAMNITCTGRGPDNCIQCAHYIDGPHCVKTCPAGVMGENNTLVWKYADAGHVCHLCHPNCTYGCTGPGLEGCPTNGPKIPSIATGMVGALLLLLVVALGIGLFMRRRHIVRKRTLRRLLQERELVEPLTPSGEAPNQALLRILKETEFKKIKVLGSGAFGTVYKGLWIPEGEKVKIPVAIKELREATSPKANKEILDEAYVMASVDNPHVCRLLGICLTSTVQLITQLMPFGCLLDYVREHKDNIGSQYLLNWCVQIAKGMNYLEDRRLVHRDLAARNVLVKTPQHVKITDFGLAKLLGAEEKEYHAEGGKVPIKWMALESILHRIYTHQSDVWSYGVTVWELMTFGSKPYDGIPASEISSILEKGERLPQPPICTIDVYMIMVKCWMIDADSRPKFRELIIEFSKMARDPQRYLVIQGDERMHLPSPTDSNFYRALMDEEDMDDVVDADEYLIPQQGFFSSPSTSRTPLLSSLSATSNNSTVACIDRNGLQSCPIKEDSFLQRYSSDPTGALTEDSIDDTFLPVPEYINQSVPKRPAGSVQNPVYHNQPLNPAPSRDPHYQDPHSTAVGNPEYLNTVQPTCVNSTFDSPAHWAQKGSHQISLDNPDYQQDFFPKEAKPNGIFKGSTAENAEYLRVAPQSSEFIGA

| Structure (SMILES) | IC50 [1] | pIC50 [2] | pIC50 ([1]; unit inferred) |
| --- | --- | --- | --- |
| COc1cc2nc(C)nc(NC(C)c3ccc(-c4ccccc4CN4CC(F)(F)C4)s3)c2cc1OC (centres unmarked) [Example 320, N-[1-(5-{2-[(3,3-difluoroazetidin-1-yl)methyl]phenyl}thiophen-2-yl)ethyl]-6,7-dimethoxy-2-methylquinazolin-4-amine] | > 20 µM | 5.89 |  |
| COc1cc2nc(C)nc(NC(C)c3ccc(-c4ccccc4CN4CC(O)C4)s3)c2cc1OC (centres unmarked) [Example 312, 1-[2-(5-{1-[(6,7-dimethoxy-2-methylquinazolin-4-yl)amino]ethyl}thiophen-2-yl)benzyl]azetidin-3-ol] | > 20 µM | 7.18 |  |
| COc1cc2nc(C)nc(NC(C)c3cc4ccccc4o3)c2cc1OC (centres unmarked) [Example 20, N-[1-(1-benzofuran-2-yl)ethyl]-6,7-dimethoxy-2-methylquinazolin-4-amine] | > 20 µM | 5.09 |  |
| COc1cc2nc(C)nc(NC(C)c3cc(-c4ccccc4CN)cs3)c2cc1OC (centres unmarked) [Example 270, N-[1-{4-[2-(aminomethyl)phenyl]thiophen-2-yl}ethyl]-6,7-dimethoxy-2-methylquinazolin-4-amine] | > 20 µM | 7.09 |  |
| COc1cc2nc(C)nc(NC(C)c3ccc(-c4ccccc4CN4CC5(CNC(=O)N5)C4)s3)c2cc1OC (centres unmarked) [Example 313, 2-[2-(5-{1-[(6,7-dimethoxy-2-methylquinazolin-4-yl)amino]ethyl}thiophen-2-yl)benzyl]-2,5,7-triazaspiro[3.4]octan-6-one] | > 20 µM | 6.79 |  |
| COc1cc2nc(C)nc(NC(C)c3cc(-c4ccc(F)cc4CN)cs3)c2cc1OC (centres unmarked) [Example 269, N-[1-{4-[2-(aminomethyl)-4-fluorophenyl]thiophen-2-yl}ethyl]-6,7-dimethoxy-2-methylquinazolin-4-amine] | > 20 µM | 6.94 |  |
| COc1cc2nc(C)nc(NC(C)c3ccc(-c4ccc(F)cc4CNC(=O)CNc4ccccc4)s3)c2cc1OC (centres unmarked) [Example 299, N-[2-(5-{1-[(6,7-dimethoxy-2-methylquinazolin-4-yl)amino]ethyl}thiophen-2-yl)-5-fluorobenzyl]-N^2-phenylglycinamide] | > 20 µM | 5.91 |  |
| COc1cc2nc(C)nc(NC(C)c3ccc(-c4cnc5n4CCC5)s3)c2cc1OC (single isomer, unassigned; enantiomer 2) [Example 329, N-{1-[5-(6,7-dihydro-5H-pyrrolo[1,2-a]imidazol-3-yl)thiophen-2-yl]ethyl}-6,7-dimethoxy-2-methylquinazolin-4-amine, Enantiomer 2] | > 20 µM | 5.19 |  |
| COc1cc2nc(C)nc(NC(C)c3ccc(-c4ccc(CN)cc4)s3)c2cc1OC (centres unmarked) [Example 266, N-[1-{5-[4-(aminomethyl)phenyl]thiophen-2-yl}ethyl]-6,7-dimethoxy-2-methylquinazolin-4-amine] | > 20 µM | 5.77 |  |
| COc1cc2nc(C)nc(NC(C)c3ccc(-c4ccc(CN)o4)s3)c2cc1OC (centres unmarked) [Example 275, N-[1-{5-[5-(aminomethyl)furan-2-yl]thiophen-2-yl}ethyl]-6,7-dimethoxy-2-methylquinazolin-4-amine] | > 20 µM | 5.53 |  |
| COc1cc2nc(C)nc(NC(C)c3cccc4c3cnn4C)c2cc1OC (centres unmarked) [Example 17, 6,7-dimethoxy-2-methyl-N-[1-(1-methyl-1H-indazol-4-yl)ethyl]quinazolin-4-amine] | > 20 µM | 6.53 |  |
| COc1cc2nc(C)nc(NC(C)c3cccc4sc(C)cc34)c2cc1OC (centres unmarked) [Example 330, 6,7-dimethoxy-2-methyl-N-[1-(2-methyl-1-benzothiophen-4-yl)ethyl]quinazolin-4-amine] | > 20 µM | 6.44 |  |
| COc1cc2nc(C)nc(NC(C)c3ccc(-c4ccccc4CN[C@H]4CCN(C)C4=O)s3)c2cc1OC (stereo partly drawn) [Example 309, (3S)-{[2-(5-{1-[(6,7-dimethoxy-2-methylquinazolin-4-yl)amino]ethyl}thiophen-2-yl)benzyl]amino}-1-methylpyrrolidin-2-one] | > 20 µM | 6.16 |  |
| COc1cc2nc(C)nc(NC(C)c3ccc(-c4ccccc4CNCC(=O)N4CCOCC4)s3)c2cc1OC (centres unmarked) [Example 285, 2-{[2-(5-{1-[(6,7-dimethoxy-2-methylquinazolin-4-yl)amino]ethyl}thiophen-2-yl)benzyl]amino}-1-(morpholin-4-yl)ethanone] | > 20 µM | 6.80 |  |
| CNCc1ccccc1-c1cc(C(C)Nc2nc(C)nc3cc(OC)c(OC)cc23)cs1 (centres unmarked) [Example 263, 6,7-dimethoxy-2-methyl-N-[1-(5-{2-[(methylamino)methyl]phenyl}thiophen-3-yl)ethyl]quinazolin-4-amine] | > 20 µM | 6.63 |  |
| COc1cc2nc(C)nc(NC(C)c3cccc(OC)c3OC)c2cc1OC (centres unmarked) [Example 21, N-[1-(2,3-dimethoxyphenyl)ethyl]-6,7-dimethoxy-2-methylquinazolin-4-amine] | > 20 µM | 5.49 |  |

| Structure (SMILES) | IC50 [1] | pIC50 [2] | pIC50 ([1]; unit inferred) |
| --- | --- | --- | --- |
| COc1cc2nc(C)nc(NC(C)c3nccc4sccc34)c2cc1OC (centres unmarked) [Example 333, 6,7-dimethoxy-2-methyl-N-[1-(thieno[3,2-c]pyridin-4-yl)ethyl]quinazolin-4-amine] |  | 5.21 | 4.79 |
| COc1cc2nc(C)nc(NC(C)c3ccc(-c4ccc(F)cc4CNC(=O)[C@H]4CCCN4)s3)c2cc1OC (stereo in doubt) [Example 316, N-[2-(5-{1-[(6,7-dimethoxy-2-methylquinazolin-4-yl)amino]ethyl}thiophen-2-yl)-5-fluorobenzyl]-prolinamide] | > 20 µM | 6.55 |  |
| COc1cc2nc(C)nc(NC(C)c3ccc(-c4ccccc4CN(C)CCO)s3)c2cc1OC (centres unmarked) [Example 298, 2-{[2-(5-{1-[(6,7-dimethoxy-2-methylquinazolin-4-yl)amino]ethyl}thiophen-2-yl)benzyl](methyl)amino}ethanol] | > 20 µM | 7.31 |  |
| COc1cc2nc(C)nc(NC(C)c3ccc(-c4ccc(F)cc4CNC(=O)[C@@H]4CCCN4)s3)c2cc1OC (stereo partly drawn) [Example 314, N-[2-(5-{1-[(6,7-dimethoxy-2-methylquinazolin-4-yl)amino]ethyl}thiophen-2-yl)-5-fluorobenzyl]-L-prolinamide] | > 20 µM | 7.06 |  |
| COc1cc2nc(C)nc(NC(C)c3ccc(-c4ccccc4CN4CCCC(C(N)=O)C4)s3)c2cc1OC (centres unmarked) [Example 290, 1-[2-(5-{1-[(6,7-dimethoxy-2-methylquinazolin-4-yl)amino]ethyl}thiophen-2-yl)benzyl]piperidine-3-carboxamide] | > 20 µM | 6.94 |  |
| COc1cc2nc(C)nc(NC(C)c3ccc(-c4ccccc4CNCCO)s3)c2cc1OC (centres unmarked) [Example 297, 2-{[2-(5-{1-[(6,7-dimethoxy-2-methylquinazolin-4-yl)amino]ethyl}thiophen-2-yl)benzyl]amino}ethanol] | > 20 µM | 7.24 |  |
| COc1cc2nc(C)nc(NC(C)c3cc(-c4ccn(CCN5CCCC5)n4)cs3)c2cc1OC (centres unmarked) [Example 267, 6,7-dimethoxy-2-methyl-N-[1-(4-{1-[2-(pyrrolidin-1-yl)ethyl]-1H-pyrazol-3-yl}thiophen-2-yl)ethyl]quinazolin-4-amine] | > 20 µM | 5.82 |  |
| COc1cc2nc(C)nc(NC(C)c3ccc(-c4ccccc4CN(C)CC(F)(F)F)s3)c2cc1OC (centres unmarked) [Example 321, 6,7-di methoxy-2-methyl-N-{1-[5-(2-{[methyl(2,2,2-trifluoroethyl)amino]methyl}phenyl)thiophen-2-yl]ethyl}quinazolin-4-amine] | > 20 µM | 5.20 |  |
| COc1cc2nc(C)nc(N[C@H](C)c3cccc(-c4cn[nH]c4C)c3)c2cc1OC [Example 335, 6,7-dimethoxy-2-methyl-N-{(1R)-1-[3-(5-methyl-1H-pyrazol-4-yl)phenyl]ethyl}quinazolin-4-amine] | > 20 µM | 6.43 |  |
| COc1cc2nc(C)nc(NC(C)c3ccc(-c4cscc4C#N)s3)c2cc1OC (centres unmarked) [Example 287, 5-{1-[(6,7-dimethoxy-2-methylquinazolin-4-yl)amino]ethyl}-2,3′-bithiophene-4′-carbonitrile] | > 20 µM | 5.73 |  |
| COc1cc2nc(C)nc(NC(C)c3ccc(-c4ccc(F)cc4CNC(=O)c4cc[nH]n4)s3)c2cc1OC (centres unmarked) [Example 310, N-[2-(5-{1-[(6,7-dimethoxy-2-methylquinazolin-4-yl)amino]ethyl}thiophen-2-yl)-5-fluorobenzyl]-1H-pyrazole-3-carboxamide] | > 20 µM | 5.87 |  |
| COc1cc2nc(C)nc(NC(C)c3ccnc4sccc34)c2cc1OC (centres unmarked) [Example 331, 6,7-dimethoxy-2-methyl-N-[1-(thieno[2,3-b]pyridin-4-yl)ethyl]quinazolin-4-amine] | > 20 µM | 6.00 |  |
| COc1cc2nc(C)nc(N[C@H](C)c3cccc(-c4cnc5n4CCC5)c3)c2cc1OC [Example 261, N-{(1R)-1-[3-(6,7-dihydro-5H-pyrrolo[1,2-a]imidazol-3-yl)phenyl]ethyl}-6,7-dimethoxy-2-methylquinazolin-4-amine] | > 20 µM | 6.06 |  |
| COc1cc2nc(C)nc(NC(C)c3csc(-c4ccccc4CN)c3)c2cc1OC (centres unmarked) [Example 259, N-[1-{5-[2-(aminomethyl)phenyl]thiophen-3-yl}ethyl]-6,7-dimethoxy-2-methylquinazolin-4-amine] | > 20 µM | 6.36 |  |
| COc1cc2nc(C)nc(N[C@H](C)c3cccc(-c4cnn(C)c4)c3)c2cc1OC [Example 338, 6,7-dimethoxy-2-methyl-N-{(1R)-1-[3-(1-methyl-1H-pyrazol-4-yl)phenyl]ethyl}quinazolin-4-amine] | > 20 µM | 6.08 |  |

Source: patent US20240083857A1, “2-Methyl-Quinazolines” (Bayer Pharma Aktiengesellschaft, priority 2017, published 2024)
